Our source for the EC50 and Emax values is patent publication US20230265151A1, “GIP/GLP1 CO-AGONIST COMPOUNDS” (priority 2020, published 2023).

Common to all, as to type: cell-based
One assay addresses T1, hGCGR (Homo sapiens, UniProt P47871).
T1 construct: expressed in transfected cells
Kind of assay: Functional cAMP formation (HTRF) in HEK-293 clonal cells expressing hGCGR, 0.1% bovine casein, without or with 1.0% human serum albumin. The conditions noted are these: cAMP. The method, boiled down: (§1)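 Cells were stimulated with peptide for 30 min at 37° C, then lysed in buffer carrying cAMP-d2 and anti-cAMP Eu3+-cryptate for a competitive HTRF read after at least 60 min at room temperature. The 665/620 nm ratio was converted to nM cAMP against a standard curve.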
A general note: cAMP levels reflect the balance of adenylyl cyclase and phosphodiesterase activity.

Another assay has as its target hGLP-1R (Homo sapiens, UniProt P43220). Kind of assay: Functional cAMP formation (HTRF) in HEK-293 clonal cells expressing hGLP-1R, 0.1% bovine casein, without or with 1.0% human serum albumin. The conditions noted are these: 37° C.; for Emax: 0.1% bovine casein, arithmetic mean. Further details: expressed in transfected cells. The method, boiled down: as §1
The target of the next assay is T2, hGIPR (Homo sapiens, UniProt P48546).
T2 construct: expressed in transfected cells
T2 sequence (P48546 22-466): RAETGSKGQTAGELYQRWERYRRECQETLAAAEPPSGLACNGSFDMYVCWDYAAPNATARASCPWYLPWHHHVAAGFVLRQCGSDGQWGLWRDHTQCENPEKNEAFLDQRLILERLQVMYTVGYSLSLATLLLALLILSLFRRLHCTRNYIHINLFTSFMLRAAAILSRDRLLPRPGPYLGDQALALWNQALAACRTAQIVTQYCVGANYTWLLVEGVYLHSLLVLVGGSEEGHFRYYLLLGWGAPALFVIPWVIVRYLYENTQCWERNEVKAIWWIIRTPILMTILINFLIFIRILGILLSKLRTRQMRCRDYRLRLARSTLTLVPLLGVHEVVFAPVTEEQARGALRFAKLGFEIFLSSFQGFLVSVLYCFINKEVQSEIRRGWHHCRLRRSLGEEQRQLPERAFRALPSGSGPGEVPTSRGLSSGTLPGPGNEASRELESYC
Kind of assay: Functional cAMP formation (HTRF) in HEK-293 clonal cells expressing hGIPR, 0.1% bovine casein, without or with 1.0% human serum albumin. The conditions noted are these: for EC50: cAMP, 0.1% bovine casein (no human serum albumin), geometric mean. The method, boiled down: as §1

Read-outs that look alike come from different tables or passages of the source. A value given as a limit tells only on which side of the number the result lay.

Chain of hGLP-1R (P43220 24-463): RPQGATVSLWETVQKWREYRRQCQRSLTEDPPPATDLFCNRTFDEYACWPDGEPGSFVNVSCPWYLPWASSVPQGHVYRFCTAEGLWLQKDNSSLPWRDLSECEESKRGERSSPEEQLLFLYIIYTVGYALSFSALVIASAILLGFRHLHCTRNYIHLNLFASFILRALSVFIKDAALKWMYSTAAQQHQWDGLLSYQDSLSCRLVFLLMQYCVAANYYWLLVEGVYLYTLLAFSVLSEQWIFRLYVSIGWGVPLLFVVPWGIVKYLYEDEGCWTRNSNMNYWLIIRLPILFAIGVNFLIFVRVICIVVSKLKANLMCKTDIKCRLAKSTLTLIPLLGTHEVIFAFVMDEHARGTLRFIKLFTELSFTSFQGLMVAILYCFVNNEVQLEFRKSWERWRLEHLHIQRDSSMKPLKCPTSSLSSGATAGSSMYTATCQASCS
T1 sequence (P47871 26-477): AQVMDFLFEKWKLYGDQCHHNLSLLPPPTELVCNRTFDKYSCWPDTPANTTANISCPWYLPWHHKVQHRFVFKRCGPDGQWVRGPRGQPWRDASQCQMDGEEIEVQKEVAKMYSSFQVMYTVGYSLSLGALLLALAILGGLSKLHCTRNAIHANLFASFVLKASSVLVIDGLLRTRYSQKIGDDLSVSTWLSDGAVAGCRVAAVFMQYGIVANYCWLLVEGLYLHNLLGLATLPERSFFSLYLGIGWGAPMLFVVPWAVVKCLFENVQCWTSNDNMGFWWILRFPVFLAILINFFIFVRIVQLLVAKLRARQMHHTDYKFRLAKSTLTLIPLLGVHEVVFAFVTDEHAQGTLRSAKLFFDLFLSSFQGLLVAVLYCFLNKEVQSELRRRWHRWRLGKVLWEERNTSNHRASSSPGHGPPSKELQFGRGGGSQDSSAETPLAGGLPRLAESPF

Take `CC[C@H](C)[C@H](NC(=O)[C@H](CC(C)C)NC(=O)[C@](C)(Cc1ccc(O)cc1)NC(=O)[C@H](CCCCNC(=O)COCCOCCNC(=O)COCCOCCNC(=O)[C@@H](N)CCCCNC(=O)CCCCCCCCCCCCC(=O)O)NC(=O)[C@@H](NC(=O)[C@H](Cc1ccccc1)NC(=O)[C@H](CCC(=O)O)NC(=O)C(C)(C)NC(=O)[C@H](CCC(N)=O)NC(=O)[C@H](C)NC(=O)[C@H](CCCCNC(=O)COCCOCCNC(=O)COCCOCCNC(=O)[C@@H](N)CCCCNC(=O)CCCCCCCCCCCCC(=O)O)NC(=O)[C@H](CCCN)NC(=O)[C@H](CC(=O)O)NC(=O)[C@H](CC(C)C)NC(=O)[C@](C)(CC(C)C)NC(=O)[C@@H](NC(=O)[C@H](CO)NC(=O)[C@H](Cc1ccncc1)NC(=O)[C@H](CC(=O)O)NC(=O)[C@H](CO)NC(=O)[C@@H](NC(=O)[C@](C)(Cc1ccccc1F)NC(=O)[C@@H](NC(=O)CNC(=O)[C@H](CCC(=O)O)NC(=O)C(C)(C)NC(=O)[C@@H](N)Cc1ccc(O)cc1)[C@@H](C)O)[C@@H](C)O)[C@@H](C)CC)[C@@H](C)CC)C(=O)N[C@@H](CCC(=O)O)C(=O)NCC(=O)NCC(=O)N1CCC[C@H]1C(=O)N[C@@H](CO)C(=O)N[C@@H](CO)C(=O)NCC(=O)N[C@@H](C)C(=O)N1CCC[C@H]1C(=O)N1CCC[C@H]1C(=O)N1CCC[C@H]1C(=O)N[C@@H](CO)C(N)=O` [Example 160]: the EC50 at hGCGR (hGCGR EC50, nM (SEM, n), incubated at 37° C., 0.1% bovine casein (no human serum albumin), geometric mean) is greater than 9950 nM; at hGIPR (hGIPR EC50, nM (SEM, n), incubated at 37° C.), 0.0197 nM. Also, on hGLP-1R (HEK293, read-out: hGLP-1R Emax, % ± SEM, percent of maximal response to GLP-1(7-36)NH2), the Emax came out at 93.6%.

In the case of `CC[C@H](C)[C@H](NC(=O)[C@H](CC(C)C)NC(=O)[C@](C)(Cc1ccc(O)cc1)NC(=O)[C@H](CCCCNC(=O)COCCOCCNC(=O)CC[C@H](NC(=O)CCCCCCCCCCCCC(=O)O)C(=O)O)NC(=O)[C@@H](NC(=O)[C@H](Cc1ccccc1)NC(=O)[C@H](CCCN)NC(=O)C(C)(C)NC(=O)[C@H](CCC(N)=O)NC(=O)[C@H](C)NC(=O)[C@H](CCC(N)=O)NC(=O)[C@H](CCCN)NC(=O)[C@H](CC(=O)O)NC(=O)[C@H](CC(C)C)NC(=O)[C@](C)(CC(C)C)NC(=O)[C@@H](NC(=O)C(C)(C)NC(=O)[C@H](Cc1ccncc1)NC(=O)[C@H](CC(=O)O)NC(=O)[C@H](CO)NC(=O)[C@@H](NC(=O)[C@](C)(Cc1ccccc1F)NC(=O)[C@@H](NC(=O)CNC(=O)[C@H](CCC(=O)O)NC(=O)C(C)(C)NC(=O)[C@@H](N)Cc1ccc(O)cc1)[C@@H](C)O)[C@@H](C)O)[C@@H](C)CC)[C@@H](C)CC)C(=O)N[C@@H](CCCCNC(=O)COCCOCCNC(=O)CC[C@H](NC(=O)CCCCCCCCCCCCC(=O)O)C(=O)O)C(=O)NCC(=O)NCC(=O)N1CCC[C@H]1C(=O)N[C@@H](CO)C(=O)N[C@@H](CO)C(=O)NCC(=O)N[C@@H](C)C(=O)N1CCC[C@H]1C(=O)N1CCC[C@H]1C(=O)N1CCC[C@H]1C(=O)N[C@@H](CO)C(N)=O` [Example 459], the EC50 was greater than 9950 nM at hGCGR (37° C., 0.1% bovine casein (no human serum albumin), geometric mean, read-out: hGCGR EC50, nM (SEM, n)); greater than 9950 nM at hGCGR (37° C., 0.1% bovine casein and 1.0% human serum albumin, geometric mean (SEM, n), read-out: hGCGR EC50, nM (SEM, n)); 0.18 nM at hGLP-1R (cAMP, 0.1% bovine casein (no human serum albumin), geometric mean, read-out: hGLP-1R EC50, nM (SEM, n)); 0.013 nM on hGIPR (37° C., read-out: hGIPR EC50, nM (SEM, n)). The Emax on hGLP-1R (HEK293, cAMP, percent of maximal response to GLP-1(7-36)NH2, read-out: hGLP-1R Emax, % ± SEM) came out at 120%; on hGIPR (HEK293, cAMP, 37° C., 0.1% bovine casein and 1.0% human serum albumin, percent of maximal response to GIP(1-42)NH2, read-out: hGIPR Emax, % ± SEM), 89.3%.

For orientation: EC50 means the concentration giving half of the maximal effect. The term Emax denotes the greatest response seen or fitted, relative to the assay's reference.
